Data as given in patent US20240300980A1, “HETEROCYCLIC COMPOUNDS AS KRAS INHIBITOR, AND PREPARATION THEREFOR AND USE THEREOF IN TREATMENT” (SHANGHAI KECHOW PHARMA, INC., priority 2021, published 2024).

System: AGS cells (KRAS^G12D)
Test: Detection of cell proliferation in vitro by MTT/MTS method (cell activity experiment)
Type: cell-based
Conditions: AGS cells; MTT/MTS; 3 days of drug treatment; read-out: AGS IC50
Summary of the method: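 After 3-day compound exposure (final DMSO 0.5%), viability of AGS (KRAS G12D) cells, plated 1000/well one day before dosing, was measured at 490 nm following 4 h MTT or MTS incubation. IC50 was fitted from dose–effect curves relative to DMSO-treated wells.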

**Q.** With C#Cc1c(F)ccc2cc(O)cc(-c3cc4nc(OC[C@@]56CCCN5C[C@H](F)C6)nc(N5C[C@H]6CC[C@@H](C5)N6)c4c4occc34)c12 [Example 384, 4-(9-((2R,5S)-3,8-diazabicyclo[3.2.1]octan-3-yl)-7-(((2R,7aS)-2-fluorotetrahydro-1H-pyrrolizin-7a(5H)-yl)methoxy)furo[2,3-f]quinazolin-4-yl)-5-ethynyl-6-fluoronaphthalen-2-ol] as the compound, how does the IC50 read?
**A.** 0.212 µM

Same assay, conditions: Homo sapiens, AGS, 72 h, AGS cells; MTT/MTS; 3 days of drug treatment; read-out: AGS IC50

**Q.** Which IC50 does the source give for C#Cc1c(F)ccc2cc(O)cc(-c3ncc4c(N5CCC(NC)C5)nc(OC[C@@]56CCCN5C[C@H](F)C6)nc4c3F)c12 (stereo partly drawn) [Example 58, 5-ethynyl-6-fluoro-4-(8-fluoro-2-(((2R,7aS)-2-fluorotetrahydro-1H-pyrrolizin-7a(5H)-yl)methoxy)-4-(3-(methylamino)pyrrolidin-1-yl)pyrido[4,3-d]pyrimidin-7-yl)naphthalen-2-ol] here?
**A.** > 2.5 µM

**Q.** How did the IC50 turn out when Oc1cc(-c2c3c(c4c(N5C[C@H]6CC[C@@H](C5)N6)nc(OC[C@@]56CCCN5C[C@H](F)C6)nc4c2F)OCO3)c2ccccc2c1 [Example 389, 4-(9-((1R,5S)-3,8-diazabicyclo[3.2.1]octan-3-yl)-5-fluoro-7-(((2R,7aS)-2-fluorotetrahydro-1H-pyrrolizin-7a(5H)-yl)methoxy)-[1,3]dioxolo[4,5-f]quinazolin-4-yl)naphthalen-2-ol] was run?
**A.** 0.18 µM

**Q.** For Oc1cc(-c2c3c(c4c(N5C[C@H]6CC[C@@H](C5)N6)nc(OC[C@@]56CCCN5C[C@H](F)C6)nc4c2F)CCC3)c2c(F)c(F)ccc2c1 [Example 380, 4-(1-((1R,5S)-3,8-diazabicyclo[3.2.1]octan-3-yl)-5-fluoro-3-(((2R,7aS)-2-fluorotetrahydro-1H-pyrrolizin-7a(5H)-yl)methoxy)-8,9-dihydro-7H-cyclopenta[f]quinazolin-6-yl)-5,6-difluoronaphthalen-2-ol], which IC50 is on record?
**A.** 0.095 µM

**Q.** For CCc1cccc2cc(O)cc(-c3ncc4c(C5C[C@H]6CC[C@@H](C5)N6)nc(OC[C@@]56CCCN5C[C@H](F)C6)nc4c3F)c12 (stereo partly drawn) [Example 81, 4-(4-((1R,5S)-8-azabicyclo[3.2.1]octan-3-yl)-8-fluoro-2-(((2R,7aS)-2-fluorotetrahydro-1H-pyrrolizin-7a(5H)-yl)methoxy)pyrido [4,3-d]pyrimidin-7-yl)-5-ethylnaphthalen-2-ol], which IC50 is on record?
**A.** > 2.5 µM

**Q.** Which IC50 does the source give for C#Cc1c(F)ccc2cc(O)cc(-c3ccc4c(N5CCC(N)C5)nc(OC[C@@]56CCCN5C[C@H](F)C6)nc4c3F)c12 (stereo partly drawn) [Example 111, 4-(4-(3-aminopyrrolidin-1-yl)-8-fluoro-2-(((2R,7aS)-2-fluorotetrahydro-1H-pyrrolizin-7a(5H)-yl)methoxy)quinazolin-7-yl)-5-ethynyl-6-fluoronaphthalen-2-ol] here?
**A.** > 2.5 µM

**Q.** Which IC50 does the source give for CC1Cc2cc(O)cc(-c3ncc4c(N5C[C@H]6CC[C@@H](C5)N6)nc(OC[C@@]56CCCN5C[C@H](F)C6)nc4c3F)c2C1 (stereo partly drawn) [Example 266, 7-(4-((1R,5S)-3,8-diazabicyclo[3.2.1]octan-3-yl)-8-fluoro-2-(((2R,7aS)-2-fluorotetrahydro-1H-pyrrolizin-7a(5H)-yl)methoxy)pyrido[4,3-d]pyrimidin-7-yl)-2-methyl-2,3-dihydro-1H-inden-5-ol] here?
**A.** 0.052 µM

**Q.** How did the IC50 turn out when Oc1cc(-c2ccc3c(N4C[C@H]5CC[C@@H](C4)N5)nc(OC[C@@]45CCCN4C[C@H](F)C5)nc3c2F)c2c(F)c(F)ccc2c1 [Example 94, 4-(4-((1R,5S)-3,8-diazabicyclo[3.2.1]octan-3-yl)-8-fluoro-2-(((2R,7aS)-2-fluorotetrahydro-1H-pyrrolizin-7a(5H)-yl)methoxy)quinazolin-7-yl)-5,6-difluoronaphthalen-2-ol] was run?
**A.** 0.0015 µM

**Q.** For C#Cc1cc2c(N3C[C@H]4CC[C@@H](C3)N4)nc(OC[C@@]34CCCN3C[C@H](F)C4)nc2c(F)c1-c1cc(O)cc2ccc(F)c(C#C)c12 [Example 373, 4-(4-((1R,5S)-3,8-diazabicyclo[3.2.1]octan-3-yl)-6-ethynyl-8-fluoro-2-(((2R,7aS)-2-fluorotetrahydro-1H-pyrrolizin-7a(5H)-yl)methoxy)quinazolin-7-yl)-5-ethynyl-6-fluoronaphthalen-2-ol], which IC50 is on record?
**A.** 0.03 µM

**Q.** With [O-][S+]1CCCc2cc(O)cc(-c3ncc4c(N5C[C@H]6CC[C@@H](C5)N6)nc(OC[C@@]56CCCN5C[C@H](F)C6)nc4c3F)c21 (stereo partly drawn) [Example 251, 8-(4-((1R,5S)-3,8-diazabicyclo[3.2.1]octan-3-yl)-8-fluoro-2-(((2R,7aS)-2-fluorotetrahydro-1H-pyrrolizin-7a(5H)-yl)methoxy)pyrido[4,3-d]pyrimidin-7-yl)-6-hydroxythiochromane 1-oxide] as the compound, how does the IC50 read?
**A.** > 2.5 µM

**Q.** C#Cc1c(F)ccc2cc(O)cc(-c3ncc4c(N5C[C@H]6CC[C@@H](C5)N6)nc(OCC56CCN(C)C5COC6)nc4c3F)c12 (stereo partly drawn) [Example 75, 4-(4-((1R,5S)-3,8-diazabicyclo[3.2.1]octan-3-yl)-8-fluoro-2-((1-methyltetrahydro-1H-furo[3,4-b]pyrrol-3a(4H)-yl)methoxy)pyrido[4,3-d]pyrimidin-7-yl)-5-ethynyl-6-fluoronaphthalen-2-ol] was tested. Which IC50 did it give?
**A.** > 2.5 µM

**Q.** For COC1CCc2cc(O)cc(-c3ncc4c(N5C[C@H]6CC[C@@H](C5)N6)nc(OC[C@@]56CCCN5C[C@H](F)C6)nc4c3F)c21 (stereo partly drawn) [Example 269, 7-(4-((1R,5S)-3,8-diazabicyclo[3.2.1]octan-3-yl)-8-fluoro-2-(((2R,7aS)-2-fluorotetrahydro-1H-pyrrolizin-7a(5H)-yl)methoxy)pyrido[4,3-d]pyrimidin-7-yl)-1-methoxy-2,3-dihydro-1H-inden-5-ol], which IC50 is on record?
**A.** 0.03 µM

**Q.** With Oc1cc(-c2ncc3c(N4C[C@H]5CC[C@@H](C4)N5)nc(OCC4(CN5CCCC5)CC4)nc3c2F)c2c(F)cccc2c1 [Example 6, 4-(4-((1R,5S)-3,8-diazabicyclo[3.2.1]octan-3-yl)-8-fluoro-2-((1-(pyrrolidin-1-ylmethyl)cyclopropyl)methoxy)pyrido[4,3-d]pyrimidin-7-yl)-5-fluoronaphthalen-2-ol] as the compound, how does the IC50 read?
**A.** 0.014 µM

**Q.** For Oc1cc(-c2ncc3c(N4C[C@H]5CC[C@@H](C4)N5)nc(OCC4(CN5CCCC5)CC4)nc3c2F)c2c(F)c(F)ccc2c1 [Example 5, 4-(4-((1R,5S)-3,8-diazabicyclo[3.2.1]octan-3-yl)-8-fluoro-2-((1-(pyrrolidin-1-ylmethyl)cyclopropyl)methoxy)pyrido[4,3-d]pyrimidin-7-yl)-5,6-difluoronaphthalen-2-ol], which IC50 is on record?
**A.** 0.0038 µM

**Q.** With N#Cc1c(OC[C@@]23CCCN2C[C@H](F)C3)nc2c(F)c(-c3cc(O)cc4ccc(F)c(F)c34)ccc2c1N1C[C@H]2CC[C@@H](C1)N2 [Example 179, 4-((1R,5S)-3,8-diazabicyclo[3.2.1]octan-3-yl)-7-(7,8-difluoro-3-hydroxynaphthalen-1-yl)-8-fluoro-2-(((2R,7aS)-2-fluorotetrahydro-1H-pyrrolizin-7a(5H)-yl)methoxy)quinoline-3-carbonitrile] as the compound, how does the IC50 read?
**A.** 0.55 µM

**Q.** C#Cc1c(F)ccc2cc(O)cc(-c3ncc4c(N5CC6(CNC6)C5)nc(OC[C@@]56CCCN5C[C@H](F)C6)nc4c3F)c12 [Example 70, 5-ethynyl-6-fluoro-4-(8-fluoro-2-(((2R, 7aS)-2-fluorotetrahydro-1H-pyrrolizin-7a(5H)-yl)methoxy)-4-(2,6-diazaspiro[3.3]heptan-2-yl)pyrido[4,3-d]pyrimidin-7-yl)naphthalen-2-ol] was tested. Which IC50 did it give?
**A.** > 2.5 µM
